The target in this assay is ASK1 (Homo sapiens (Human), UniProt Q99683). The assay can be described thus: HTRF KinEASE Assay (TR-FRET), inhibition of ASK1. The assay is classed as biochemical. The conditions noted are these: ASK1 kinase, 100 μM ATP, 1 μM STK3 peptide substrate, compound 0 to 10 μM. How it is done: Assay HTRF® KinEASE™ Assay
Chain of ASK1 (Q99683 whole entry): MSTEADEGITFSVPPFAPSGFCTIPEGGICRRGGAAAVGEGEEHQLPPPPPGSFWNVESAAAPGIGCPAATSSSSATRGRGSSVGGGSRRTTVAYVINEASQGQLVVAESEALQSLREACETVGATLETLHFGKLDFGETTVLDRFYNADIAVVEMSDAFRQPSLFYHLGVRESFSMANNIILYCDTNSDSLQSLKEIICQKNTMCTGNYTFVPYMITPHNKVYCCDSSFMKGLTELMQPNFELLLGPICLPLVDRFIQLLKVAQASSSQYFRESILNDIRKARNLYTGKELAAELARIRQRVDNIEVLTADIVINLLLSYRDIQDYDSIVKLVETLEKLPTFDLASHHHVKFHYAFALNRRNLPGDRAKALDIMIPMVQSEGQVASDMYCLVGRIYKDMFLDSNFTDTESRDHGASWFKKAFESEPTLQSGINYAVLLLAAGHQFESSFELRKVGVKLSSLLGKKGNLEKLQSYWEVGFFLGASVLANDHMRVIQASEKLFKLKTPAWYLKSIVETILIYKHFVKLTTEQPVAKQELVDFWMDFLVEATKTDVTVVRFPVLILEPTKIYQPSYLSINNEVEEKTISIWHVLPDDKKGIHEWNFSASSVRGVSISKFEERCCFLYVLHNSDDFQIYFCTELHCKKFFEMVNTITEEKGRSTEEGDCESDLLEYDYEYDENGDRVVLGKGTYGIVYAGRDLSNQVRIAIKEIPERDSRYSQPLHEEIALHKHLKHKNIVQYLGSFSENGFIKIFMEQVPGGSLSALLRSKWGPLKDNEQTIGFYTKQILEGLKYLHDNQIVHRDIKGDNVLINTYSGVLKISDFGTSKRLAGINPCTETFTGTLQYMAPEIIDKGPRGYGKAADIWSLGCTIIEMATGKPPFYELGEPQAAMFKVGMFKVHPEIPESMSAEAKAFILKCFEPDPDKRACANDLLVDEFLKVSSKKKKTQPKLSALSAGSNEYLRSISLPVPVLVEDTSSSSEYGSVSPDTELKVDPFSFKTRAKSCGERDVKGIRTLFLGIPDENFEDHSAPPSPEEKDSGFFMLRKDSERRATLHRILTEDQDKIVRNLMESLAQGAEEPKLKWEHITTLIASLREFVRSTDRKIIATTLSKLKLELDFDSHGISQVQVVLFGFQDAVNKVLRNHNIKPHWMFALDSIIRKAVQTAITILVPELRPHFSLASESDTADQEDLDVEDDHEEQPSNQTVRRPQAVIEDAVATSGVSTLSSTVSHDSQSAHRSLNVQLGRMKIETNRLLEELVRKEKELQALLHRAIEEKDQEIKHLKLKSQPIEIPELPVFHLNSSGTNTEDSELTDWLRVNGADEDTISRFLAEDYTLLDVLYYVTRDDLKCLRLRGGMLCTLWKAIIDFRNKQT
ASK1 was purchased from Thermofisher (Catalogue #PV4011), ATP was purchased from Sigma (Catalogue #A7699), HTRF® KinEASE™ Assay System was obtained from Cisbio (Bedford, Mass.). ½ Area plate was purchased from Perkin Elmer (Catalogue ##6005560). HTRF® KinEASE™-STK is a generic method for measuring serine/threonine kinase activities using a time-resolved fluorescence resonance energy transfer (TR-FRET) immunoassay. The IC50 value for each compound was determined in the presence of compound (various concentration from 0 to 10 μM) and a fixed amount of ATP and peptide substrates. The test compound, 1 μM STK3 peptide substrate, and […] of ASK1 kinase are incubated with kinase reaction buffer containing 50 mM HEPES Ph 7.5, 0.01% BRIJ-35, 10 mM MgCl2, and 1 mM EGTA for 30 minutes. 100 μM ATP is added to start kinase reaction and incubated for 3 hours. The STK3-antibody labeled with Eu^3+-Cryptate and 125 nM streptavidin-XL665 are mixed in a single addition with stop reagents provided by the Cisbio kit used to stop the kinase reaction. Fluorescence is detected using an Envision Multilabeled 2014 reader from PerkinElmer. The Fluorescence is measured at 615 nm (Cryptate) and 665 nm (XL665) and a ratio of 665 nm/615 nm is calculated for each well. The resulting TR-FRET is proportional to the phosphorylation level. Staurosporine was used as the positive control. IC50 was determined by Xlfit 5.3.
By using above method, the inhibition of ASK1 was evaluated for the compounds of Formula (I). Example numbers correspond to those in Table 5.
For orientation: In TR-FRET formats the signal depends on donor and acceptor labels being close together.
Usually IC50 stands for the point on the concentration scale where inhibition reaches its midpoint. For `COc1cc2c(cc1C(=O)Nc1cccc(-c3nncn3C(C)C)n1)CN(C(=O)C(C)(C)CO)CC2` [Example 126, 2-(3-hydroxy-2,2-dimethylpropanoyl)-N-(6-(4-isopropyl-4H-1,2,4-triazol-3-yl)pyridin-2-yl)-6-methoxy-1,2,3,4-tetrahydroisoquinoline-7-carboxamide], the IC50 was less than 1.25 nM.

`COc1cc2c(cc1C(=O)Nc1cccc(-c3nncn3C(C)C)n1)CN(C(=O)C[C@H](C)O)CC2` [Example 127] came in with an IC50 of less than 1.25 nM.

The compound `COc1cc2c(cc1C(=O)Nc1cccc(-c3nncn3C(C)C)n1)CN(C(=O)[C@@H](O)CC(C)C)CC2` [Example 128] had an IC50 of less than 1.25 nM.

Compound `COc1cc2c(cc1C(=O)Nc1cccc(-c3nncn3C(C)C)n1)CN(C(=O)C(C)(C)O)CC2` [Example 129] had an IC50 of less than 1.25 nM.

In turn, `COc1cc2c(cc1C(=O)Nc1cccc(-c3nnnn3[C@H](C)CO)n1)CN(C(=O)OCC(C)(C)O)CC2` [Example 130, 2-hydroxy-2-methylpropyl (R)-7-((6-(1-(1-hydroxypropan-2-yl)-1H-tetrazol-5-yl)pyridin-2-yl)carbamoyl)-6-methoxy-3,4-dihydroisoquinoline-2(1H)-carboxylate] displayed an IC50 of less than 1.25 nM.

In turn, `COc1cc2c(cc1C(=O)Nc1cccc(-c3nnnn3[C@H](C)CO)n1)CN(C(=O)N1CCOCC1)CC2` [Example 131] had an IC50 of less than 1.25 nM.

`COc1cc2c(cc1C(=O)Nc1cccc(-c3nnnn3[C@H](C)CO)n1)CN(CC(=O)N1CCCC1)CC2` [Example 132] had an IC50 of less than 1.25 nM.

For the compound `C[C@H](CO)n1nnnc1-c1cccc(NC(=O)c2cc3c(cc2F)CCN(C(=O)c2ccccn2)C3)n1` [Example 133], the IC50 lay within 10 to 100 nM.

With `C[C@H](CO)n1nnnc1-c1cccc(NC(=O)c2cc3c(cc2F)CCN(C(=O)NC2CC2)C3)n1` [Example 134], the IC50 lay within 1.25 to 10 nM.

`C[C@H](CO)n1nnnc1-c1cccc(NC(=O)c2cc3c(cc2F)CCN(C(=O)N2CCC2)C3)n1` [Example 135]: the IC50 was 1.25 to 10 nM.

As for `C[C@H](CO)n1nnnc1-c1cccc(NC(=O)c2cc3c(cc2F)CCN(S(=O)(=O)Nc2ccc(F)cc2)C3)n1` [Example 136], the IC50 was in the range of 10 to 100 nM.

With `C[C@H](CO)n1nnnc1-c1cccc(NC(=O)c2cc3c(cc2F)CCN(S(=O)(=O)c2ccc(F)cc2)C3)n1` [Example 137], the IC50 is 10 to 100 nM.

The compound `CCN1CCc2cc(F)c(C(=O)Nc3cccc(-c4nnnn4[C@H](C)CO)n3)cc2C1` [Example 138] registered an IC50 of 100 to 1000 nM.

With `C[C@H](CO)n1nnnc1-c1cccc(NC(=O)c2cc3c(cn2)CCN(C(=O)N2CCOCC2)C3)n1` [Example 139], the IC50 fell in the range of 1.25 to 10 nM.

`C[C@H](CO)n1nnnc1-c1cccc(NC(=O)c2cc3c(cn2)CCN(C(=O)C(C)(C)O)C3)n1` [Example 140] registered an IC50 of 1.25 to 10 nM.

As for `COc1cc2c(cc1C(=O)Nc1cccc(-c3nnnn3[C@H](C)CO)n1)CN(C(=O)OC[C@@H](O)C(F)(F)F)CC2` [Example 141], the IC50 was less than 1.25 nM.

As to `COc1cc2c(cc1C(=O)Nc1cccc(-c3nnnn3[C@H](C)CO)n1)CN(C(=O)[C@@H]1CCOC1)CC2` [Example 142], the IC50 was less than 1.25 nM.

The compound `COc1cc2c(cc1C(=O)Nc1cccc(-c3nnnn3[C@H](C)CO)n1)CN(C(=O)OC1CCOC1)CC2` (some centres unmarked) [Example 143] registered an IC50 of 1.25 to 10 nM.

For the compound `COc1cc2c(cc1C(=O)Nc1cccc(-c3nnnn3[C@H](C)CO)n1)CN(C(=O)N1CC[C@@H](O)C1)CC2` [Example 144, N-(6-(1-((R)-1-hydroxypropan-2-yl)-1H-tetrazol-5-yl)pyridin-2-yl)-2-((R)-3-hydroxypyrrolidine-1-carbonyl)-6-methoxy-1,2,3,4-tetrahydroisoquinoline-7-carboxamide], the IC50 is less than 1.25 nM.

Compound `CCOC(=O)N1CCc2cnc(C(=O)Nc3cccc(-c4nnnn4[C@H]4CCC[C@@H]4O)n3)cc2C1` [Example 145] displayed an IC50 of 10 to 100 nM.

`CCOC(=O)N1CCc2cnc(C(=O)Nc3cccc(-c4nnnn4[C@@H]4CCC[C@@H]4O)n3)cc2C1` [Example 146]: the IC50 is 10 to 100 nM.

Regarding `CONC(=O)N1CCc2cc(OC)c(C(=O)Nc3cccc(-c4nnnn4[C@H](C)CO)n3)cc2C1` [Example 147], the IC50 was less than 1.25 nM.

The compound `COc1cc2c(cc1C(=O)Nc1cccc(-c3nncn3C(C)C)n1)CN(C(=O)CN1CCOC1=O)CC2` [Example 148] showed an IC50 of less than 1.25 nM.

`COc1cc2c(cc1C(=O)Nc1cccc(-c3nnnn3[C@H](C)CO)n1)CN(C(=O)CN1CCOC1=O)CC2` [Example 149]: the IC50 is less than 1.25 nM.

On to `COc1cc2c(cc1C(=O)Nc1cccc(-c3nnnn3[C@H](C)CO)n1)CN(c1cccnc1)CC2` [Example 150, (R)—N-(6-(1-(1-hydroxypropan-2-yl)-1H-tetrazol-5-yl)pyridin-2-yl)-6-methoxy-2-(pyridin-3-yl)-1,2,3,4-tetrahydroisoquinoline-7-carboxamide], for which the IC50 is less than 1.25 nM.

In turn, `COc1cc2c(cc1C(=O)Nc1cccc(-c3nncn3C(C)C)n1)CN(c1cncnc1)CC2` [Example 151, N-(6-(4-isopropyl-4H-1,2,4-triazol-3-yl)pyridin-2-yl)-6-methoxy-2-(pyrimidin-5-yl)-1,2,3,4-tetrahydroisoquinoline-7-carboxamide] yielded an IC50 of less than 1.25 nM.

Take `COc1cc2c(cc1C(=O)Nc1cccc(-c3nnnn3[C@H](C)CO)n1)CN(c1ncc(F)cn1)CC2` [Example 152, (R)-2-(5-fluoropyrimidin-2-yl)-N-(6-(1-(1-hydroxypropan-2-yl)-1H-tetrazol-5-yl)pyridin-2-yl)-6-methoxy-1,2,3,4-tetrahydroisoquinoline-7-carboxamide]: the IC50 fell in the range of 1.25 to 10 nM.

With `COc1cc2c(cc1C(=O)Nc1cccc(-c3nnnn3[C@H](C)CO)n1)CN(c1ncns1)CC2` [Example 153], the IC50 is 1.25 to 10 nM.

With `COc1cc2c(cc1C(=O)Nc1cccc(-c3nnnn3[C@H](C)CO)n1)CN(c1cnc(F)cn1)CC2` [Example 154, (R)-2-(5-fluoropyrazine-2-yl)-N-(6-(1-(1-hydroxypropan-2-yl)-1H-tetrazol-5-yl)pyridin-2-yl)-6-methoxy-1,2,3,4-tetrahydroisoquinoline-7-carboxamide], the IC50 is 1.25 to 10 nM.

Source of the values: US11345699B2, “Apoptosis signal-regulating kinase 1 inhibitors and methods of use thereof” (Enanta Pharmaceuticals, Inc., priority 2018, dated 2022).
